These results are taken from paper PMC8638962, “Opposing Effects of PhoPQ and PmrAB on the Properties of Salmonella enterica serovar Typhimurium: Implications on Resistance to Antimicrobial Peptides” (Biochemistry, 2021).

In brackets after ≈: the same amount, converted by molar mass. Where a SMILES comes first, the peptide text is derived from it. Where no end group is shown, it is not given here. [ ]: non-standard residue; d: D form. The star is where a group is joined. Octanoyl = CCCCCCCC(=O)*

Series [1] in a line: RP-HPLC retention as measure of hydrophobicity. In kind it is physicochemical. The conditions noted are these: C18 column, linear gradient 10–90% acetonitrile in water with 0.1% TFA in 40 min, 1.8 mL/min; for retention time: RP-HPLC retention time used as measure of hydrophobicity; for relative hydrophobicity (% ACN): percent of acetonitrile at the retention time, RP-HPLC. The text has this: The peptides were synthesized by a solid phase method on a rink amide MBHA resin using an ABI 433A automatic peptide synthesizer (Applied Biosystems). The resin-bound peptides (0.1 mequiv each) were cleaved from the resins by trifluoroacetic acid (TFA), washed with dry ether, and extracted with acetonitrile/water (50% v/v). All peptides were amidated at their C terminus. The peptides were further purified by reverse-phase high-pressure liquid chromatography (RP-HPLC) on a C18 reverse-phase Bio-Rad column (250 × 10 mm^2, 300 Å pore size, 5 μm particle size). A linear gradient of 10–90% acetonitrile in water containing 0.1% TFA (v/v) in 40 min was used at a flow rate of 1.8 mL/min. […] Electrospray mass spectroscopy confirmed their identity.[23]
(§1) We investigated both natural and de novo-designed AMPs (Table 1). The list includes (i) the human cathelicidin LL-37, (ii) a de novo-designed 15-mer AMP designated K6L9 and (iii) its D,L-amino acid-containing analogue, D,L-K6L9, and (iv) D,L amino acid histidine derivative, D,L-H6L9, (v) a 12-mer D,L-K5L7 and (vi) its caprylic-acid-conjugated analogue C8-D,L-K5L7, and (vii) the frog antimicrobial peptide Temporin L.[23] These peptides have different net positive charges under the experimental conditions, as well as hydrophobicity (represented by RP-HPLC retention times), as indicated in Table 1. The peptides were tested for their antibacterial activity against WT S. enterica serovar Typhimurium ATCC 14028 (S. typhimurium) and its mutants (Table 2). The minimal inhibitory concentration (MIC) was defined using a broth microdilution antimicrobial assay. S. typhimurium have been widely used for the exploration of bacterial resistance acquired from these two TCSs.[52],[53]

Series [2] concerns S. enterica serovar Typhimurium 14 028s wild-type. In kind it is cell-based. The following applies: broth microdilution, serial twofold dilution in modified N-minimal media (MNMM), 18–20 h at 37 °C with agitation, read by visible turbidity; WT ATCC 14028. Here is the method: (§2) The antimicrobial activity of the peptides was examined in sterile 96-wells plates (Nunc F96 microtiter plates) in a final volume of 100 μL as follows. Aliquots (50 μL) of an overnight suspension-containing bacteria (late-log phase diluted 1:5000) were added to 50 μL of modified N-minimal media (MNMM) containing the peptides in a serial twofold dilution, and antibiotics, if required, to select for the specific mutant. Inhibition of growth was determined by the visibility of turbidity in comparison to blank with no growth after an incubation of 18–20 h at 37 °C with agitation. Antibacterial activity was expressed as the minimal inhibitory concentration (MIC) in which no growth could be observed.
as §1
A general note: Broth dilution looks for growth in wells or tubes with falling amounts of substance.

Series [3] relates to S. enterica serovar Typhimurium 14 028s phoP knockout. It is filed as cell-based. The conditions noted are these: broth microdilution, serial twofold dilution in MNMM, 18–20 h at 37 °C with agitation, read by visible turbidity. Here is the method:
as §2, §1

In series [4] the test system is S. enterica serovar Typhimurium 14 028s phoP and PmrAB knockout. It is filed as cell-based. The following applies: broth microdilution, serial twofold dilution in MNMM, 18–20 h at 37 °C with agitation, read by visible turbidity; phoP and PmrAB double knockout. Here is the method: as §2, §1
Series [5] deals with S. enterica serovar Typhimurium 14 028s PmrAB knockout. It is filed as cell-based. The conditions noted are these: broth microdilution, serial twofold dilution in MNMM, 18–20 h at 37 °C with agitation, read by visible turbidity. The method, then:
as §2, §1

As for `CCCCCCCC(=O)N[C@@H](CCCCN)C(=O)N[C@@H](CCCCN)C(=O)N[C@H](CC(C)C)C(=O)N[C@H](CC(C)C)C(=O)N[C@@H](CCCCN)C(=O)N[C@@H](CC(C)C)C(=O)N[C@@H](CC(C)C)C(=O)N[C@H](CC(C)C)C(=O)N[C@@H](CCCCN)C(=O)N[C@H](CC(C)C)C(=O)N[C@@H](CC(C)C)C(=O)N[C@@H](CCCCN)C(N)=O` [C8-D,L-K5L7] (Octanoyl-KK[dL][dL]KLL[dL]K[dL]LK-NH2), in series [1], the retention time turned out to be 29.1 min and the “relative hydrophobicity (% ACN)” value amounted to 68.2 % ACN. In addition, in series [2], the “MIC, WT” value was 3.125 µM (≈ 4.93 µg/mL). For the same compound, the “MIC, phoP-KO” value in series [3] was 3.125 µM (≈ 4.93 µg/mL). Further, the “MIC, DKO” value in series [4] is 3.125 µM (≈ 4.93 µg/mL). Moreover, the “MIC, pmrAB-KO” value in series [5] amounted to 6.25 µM (≈ 9.85 µg/mL).

Turning to `CC(C)C[C@H](NC(=O)[C@H](CC(C)C)NC(=O)[C@@H](Cc1c[nH]cn1)NC(=O)[C@H](CC(C)C)NC(=O)[C@H](CC(C)C)NC(=O)[C@H](Cc1c[nH]cn1)NC(=O)[C@@H](Cc1c[nH]cn1)NC(=O)[C@@H](CC(C)C)NC(=O)[C@H](CC(C)C)NC(=O)[C@@H](Cc1c[nH]cn1)NC(=O)[C@H](Cc1c[nH]cn1)NC(=O)[C@H](CC(C)C)NC(=O)[C@@H](CC(C)C)NC(=O)[C@H](Cc1c[nH]cn1)NC(=O)[C@@H](N)CC(C)C)C(N)=O` [D,L-H6L9] (H-LH[dL]LH[dH]L[dL][dH]HLL[dH]LL-NH2; N-terminus assumed), in series [1], the retention time was determined as 29.3 min and the “relative hydrophobicity (% ACN)” value is recorded as 68.6 % ACN. Moreover, in series [2], the “MIC, WT” value was 100 µM (≈ 186 µg/mL). In series [3], the “MIC, phoP-KO” value was 50 µM (≈ 92.9 µg/mL). For the same compound, in series [4], the “MIC, DKO” value was found to be 50 µM (≈ 92.9 µg/mL). Besides, the “MIC, pmrAB-KO” value in series [5] stood at 50 µM (≈ 92.9 µg/mL).

Consider `CC(C)C[C@H](NC(=O)[C@H](CCCCN)NC(=O)[C@@H](CC(C)C)NC(=O)[C@@H](CC(C)C)NC(=O)[C@H](CCCCN)NC(=O)[C@@H](N)CCCCN)C(=O)N[C@@H](CC(C)C)C(=O)N[C@H](CC(C)C)C(=O)N[C@@H](CCCCN)C(=O)N[C@H](CC(C)C)C(=O)N[C@@H](CC(C)C)C(=O)N[C@@H](CCCCN)C(N)=O` [D,L-K5L7] (H-KK[dL][dL]KLL[dL]K[dL]LK-NH2; N-terminus assumed), for which, in series [1], the retention time came out at 23.5 min and the “relative hydrophobicity (% ACN)” value worked out at 57 % ACN. Further, in series [2], the “MIC, WT” value was found to be 6.25 µM (≈ 9.06 µg/mL). Further, the “MIC, phoP-KO” value in series [3] amounted to 1.56 µM (≈ 2.26 µg/mL). In addition, in series [4], the “MIC, DKO” value was determined as 3.125 µM (≈ 4.53 µg/mL). Moreover, the “MIC, pmrAB-KO” value in series [5] is 12.5 µM (≈ 18.1 µg/mL).

Regarding `CC(C)C[C@H](NC(=O)[C@H](CC(C)C)NC(=O)[C@@H](CCCCN)NC(=O)[C@H](CC(C)C)NC(=O)[C@H](CC(C)C)NC(=O)[C@H](CCCCN)NC(=O)[C@@H](CCCCN)NC(=O)[C@@H](CC(C)C)NC(=O)[C@H](CC(C)C)NC(=O)[C@@H](CCCCN)NC(=O)[C@H](CCCCN)NC(=O)[C@H](CC(C)C)NC(=O)[C@@H](CC(C)C)NC(=O)[C@H](CCCCN)NC(=O)[C@@H](N)CC(C)C)C(N)=O` [D,L-K6L9] (H-LK[dL]LK[dK]L[dL][dK]KLL[dK]LL-NH2; N-terminus assumed), in series [1], the retention time is 27.7 min and the “relative hydrophobicity (% ACN)” value turned out to be 65.4 % ACN. Further, the “MIC, WT” value in series [2] is 1.56 µM (≈ 2.82 µg/mL). The “MIC, phoP-KO” value in series [3] was 0.39 µM (≈ 0.704 µg/mL). In series [4], the “MIC, DKO” value is 0.78 µM (≈ 1.41 µg/mL). The “MIC, pmrAB-KO” value in series [5] was determined as 1.56 µM (≈ 2.82 µg/mL).

With `CC[C@H](C)[C@H](NC(=O)[C@H](CCCCN)NC(=O)[C@H](CCC(=O)O)NC(=O)[C@H](CCCCN)NC(=O)[C@H](CO)NC(=O)[C@H](CCCCN)NC(=O)[C@H](CCCNC(=N)N)NC(=O)[C@H](Cc1ccccc1)NC(=O)[C@H](Cc1ccccc1)NC(=O)[C@H](CC(=O)O)NC(=O)CNC(=O)[C@H](CC(C)C)NC(=O)[C@@H](N)CC(C)C)C(=O)NCC(=O)N[C@@H](CCCCN)C(=O)N[C@@H](CCC(=O)O)C(=O)N[C@@H](Cc1ccccc1)C(=O)N[C@@H](CCCCN)C(=O)N[C@@H](CCCNC(=N)N)C(=O)N[C@H](C(=O)N[C@H](C(=O)N[C@@H](CCC(N)=O)C(=O)N[C@@H](CCCNC(=N)N)C(=O)N[C@H](C(=O)N[C@@H](CCCCN)C(=O)N[C@@H](CC(=O)O)C(=O)N[C@@H](Cc1ccccc1)C(=O)N[C@@H](CC(C)C)C(=O)N[C@@H](CCCNC(=N)N)C(=O)N[C@@H](CC(N)=O)C(=O)N[C@@H](CC(C)C)C(=O)N[C@H](C(=O)N1CCC[C@H]1C(=O)N[C@@H](CCCNC(=N)N)C(=O)N[C@H](C(=O)N[C@@H](CCC(=O)O)C(=O)N[C@@H](CO)C(N)=O)[C@@H](C)O)C(C)C)[C@@H](C)CC)C(C)C)[C@@H](C)CC` [LL-37, reference compound], the “MIC, WT” value in series [2] was 3.125 µM (≈ 14 µg/mL). Moreover, the “MIC, phoP-KO” value in series [3] was 1.56 µM (≈ 7.01 µg/mL). The “MIC, DKO” value in series [4] turned out to be 3.125 µM (≈ 14 µg/mL). Moreover, the “MIC, pmrAB-KO” value in series [5] turned out to be 6.25 µM (≈ 28.1 µg/mL).

Turning to “FVQWFSKFLGRIL-NH2 [Temporin L, reference compound]”, the “MIC, WT” value in series [2] was determined as 25 µM. The “MIC, phoP-KO” value in series [3] amounted to 12.5 µM. In addition, in series [4], the “MIC, DKO” value was determined as 25 µM. Moreover, the “MIC, pmrAB-KO” value in series [5] was found to be 25 µM.

Take LKLLKKLLKKLLKLL-NH2 [L-K6L9]: in series [2], the “MIC, WT” value was determined as 1.56 µM. Moreover, the “MIC, phoP-KO” value in series [3] turned out to be 0.39 µM. Moreover, in series [4], the “MIC, DKO” value came out at 3.125 µM. In addition, the “MIC, pmrAB-KO” value in series [5] is 3.125 µM.
